According to PMC6800282, “Make the right measurement: Discovery of an allosteric inhibition site for p300-HAT” (Structural Dynamics, 2019):
“And” between values parts separate entries of the source, which are not always exact repeats. Equal values may be shown once.

Experiments:
CBP HAT = CBP HAT (Homo sapiens, UniProt Q92793); test: CBP HAT SPA; format: biochemical
WT P300 HAT domain = biological target: T1, WT P300 HAT domain (Homo sapiens, UniProt Q09472); test: p300 HAT domain SPA catalytic assay with peptide substrate; format: biochemical; conditions: for Mechanism of inhibition (excess substrate MOI tests): 10× AcCoA, 30× histone peptide; for IC50: HAT domain construct K1287-F1666
T1 construct: WT HAT construct = K1287-F1666 including the L1520-L1580 regulatory loop, expressed as HisTev fusion; HisTev (polyhistidine tag with TEV site); made in house
T1 sequence (Q09472 1287-1666): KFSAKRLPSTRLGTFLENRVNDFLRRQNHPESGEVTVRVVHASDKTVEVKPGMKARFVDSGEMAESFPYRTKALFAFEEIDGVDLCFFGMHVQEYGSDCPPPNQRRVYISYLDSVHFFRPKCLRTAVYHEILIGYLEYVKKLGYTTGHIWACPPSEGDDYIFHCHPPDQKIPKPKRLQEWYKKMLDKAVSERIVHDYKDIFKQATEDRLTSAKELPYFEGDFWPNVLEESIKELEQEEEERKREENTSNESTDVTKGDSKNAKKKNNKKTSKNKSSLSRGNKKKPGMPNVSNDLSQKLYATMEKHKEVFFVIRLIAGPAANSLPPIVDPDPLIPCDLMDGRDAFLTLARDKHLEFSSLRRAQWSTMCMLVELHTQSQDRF
Description: To identify starting points for modulating p300/CBP activity, high throughput screening was carried out using the WT P300 HAT domain (WT HAT construct = K1287-F1666 including the L1520-L1580 regulatory loop, expressed as HisTev fusion) and a peptide substrate in a catalytic assay. After extensive triage, several validated inhibitor types were identified, one of which will be the focus of this report. A more detailed description of the HTS efforts will be the subject of a forthcoming publication by Huhn et al. At this stage of the project, only the HAT domain of p300 was used, as it was not yet feasible to obtain sufficient quantities of full-length P300 (FL-P300) to conduct a high-throughput screen of >150,000 compounds.

[1] = system: H3K18 acetylation in HCT116 cells; test: Inhibition of H3K18 acetylation in HCT116 cells; format: cell-based; conditions: Homo sapiens, HCT-116, read-out: H3K18Ac EC50
P300-HAT domain = biological target: T2, P300-HAT domain (Homo sapiens, UniProt Q09472); test: Dynamic scanning fluorimetry (DSF); format: binding; conditions: for ΔTm at 250 µM: compound at 250 μM
T2 sequence (Q09472 1287-1666): T1 sequence (Q09472 1287-1666)
From the text: Additionally, given their small size, it seemed unlikely that CPI-076 and CPI-090 blocked both sites.

[2] = biological target: T3, full-length human p300 (FL-P300) (Homo sapiens, UniProt Q09472); test: Full-length p300 SPA; format: biochemical; conditions: for Inhibition of FL enzyme: full-length P300
T3 construct: polyhistidine tag with TEV site (HisTev) (N); StrepII (C); made in house; host or cells: Sf9 insect cells (baculovirus)
From the text: The sequence of 2414-residue full-length human p300 (FL-P300) was codon-optimized for insect cell expression and synthesized in three parts (Genscript). After assembly of the full-length sequence, the complete ORF was subcloned into a modified pTriEx vector (Novagen/EMD Millipore) to express FL-P300 with both an N-terminal, cleavable polyhistidine tag and C-terminal StrepII tag (HisTev-p300-Strep). Baculovirus was produced by co-transfection of the plasmid into Sf9 cells with linearized baculovirus BestBac2.0 (Expression Systems). The protein was expressed in Sf9 cells and purified with Talon Metal Affinity Resin (Clontech/Takara). The purified protein was concentrated to 1.6 mg/ml in storage buffer (50 mM Tris pH 8, 100 mM NaCl, 10% glycerol, and 0.5 mM TCEP).
At this point in the program, quantities of highly purified FL P300 were more readily available (preparation described above), and so HAT inhibitors were retested against FL P300 under optimized conditions. A large shift relative to the P300-HAT catalytic domain assay was observed.

[3] = full-length enzyme, optimized conditions

T3 sequence (Q09472 whole entry): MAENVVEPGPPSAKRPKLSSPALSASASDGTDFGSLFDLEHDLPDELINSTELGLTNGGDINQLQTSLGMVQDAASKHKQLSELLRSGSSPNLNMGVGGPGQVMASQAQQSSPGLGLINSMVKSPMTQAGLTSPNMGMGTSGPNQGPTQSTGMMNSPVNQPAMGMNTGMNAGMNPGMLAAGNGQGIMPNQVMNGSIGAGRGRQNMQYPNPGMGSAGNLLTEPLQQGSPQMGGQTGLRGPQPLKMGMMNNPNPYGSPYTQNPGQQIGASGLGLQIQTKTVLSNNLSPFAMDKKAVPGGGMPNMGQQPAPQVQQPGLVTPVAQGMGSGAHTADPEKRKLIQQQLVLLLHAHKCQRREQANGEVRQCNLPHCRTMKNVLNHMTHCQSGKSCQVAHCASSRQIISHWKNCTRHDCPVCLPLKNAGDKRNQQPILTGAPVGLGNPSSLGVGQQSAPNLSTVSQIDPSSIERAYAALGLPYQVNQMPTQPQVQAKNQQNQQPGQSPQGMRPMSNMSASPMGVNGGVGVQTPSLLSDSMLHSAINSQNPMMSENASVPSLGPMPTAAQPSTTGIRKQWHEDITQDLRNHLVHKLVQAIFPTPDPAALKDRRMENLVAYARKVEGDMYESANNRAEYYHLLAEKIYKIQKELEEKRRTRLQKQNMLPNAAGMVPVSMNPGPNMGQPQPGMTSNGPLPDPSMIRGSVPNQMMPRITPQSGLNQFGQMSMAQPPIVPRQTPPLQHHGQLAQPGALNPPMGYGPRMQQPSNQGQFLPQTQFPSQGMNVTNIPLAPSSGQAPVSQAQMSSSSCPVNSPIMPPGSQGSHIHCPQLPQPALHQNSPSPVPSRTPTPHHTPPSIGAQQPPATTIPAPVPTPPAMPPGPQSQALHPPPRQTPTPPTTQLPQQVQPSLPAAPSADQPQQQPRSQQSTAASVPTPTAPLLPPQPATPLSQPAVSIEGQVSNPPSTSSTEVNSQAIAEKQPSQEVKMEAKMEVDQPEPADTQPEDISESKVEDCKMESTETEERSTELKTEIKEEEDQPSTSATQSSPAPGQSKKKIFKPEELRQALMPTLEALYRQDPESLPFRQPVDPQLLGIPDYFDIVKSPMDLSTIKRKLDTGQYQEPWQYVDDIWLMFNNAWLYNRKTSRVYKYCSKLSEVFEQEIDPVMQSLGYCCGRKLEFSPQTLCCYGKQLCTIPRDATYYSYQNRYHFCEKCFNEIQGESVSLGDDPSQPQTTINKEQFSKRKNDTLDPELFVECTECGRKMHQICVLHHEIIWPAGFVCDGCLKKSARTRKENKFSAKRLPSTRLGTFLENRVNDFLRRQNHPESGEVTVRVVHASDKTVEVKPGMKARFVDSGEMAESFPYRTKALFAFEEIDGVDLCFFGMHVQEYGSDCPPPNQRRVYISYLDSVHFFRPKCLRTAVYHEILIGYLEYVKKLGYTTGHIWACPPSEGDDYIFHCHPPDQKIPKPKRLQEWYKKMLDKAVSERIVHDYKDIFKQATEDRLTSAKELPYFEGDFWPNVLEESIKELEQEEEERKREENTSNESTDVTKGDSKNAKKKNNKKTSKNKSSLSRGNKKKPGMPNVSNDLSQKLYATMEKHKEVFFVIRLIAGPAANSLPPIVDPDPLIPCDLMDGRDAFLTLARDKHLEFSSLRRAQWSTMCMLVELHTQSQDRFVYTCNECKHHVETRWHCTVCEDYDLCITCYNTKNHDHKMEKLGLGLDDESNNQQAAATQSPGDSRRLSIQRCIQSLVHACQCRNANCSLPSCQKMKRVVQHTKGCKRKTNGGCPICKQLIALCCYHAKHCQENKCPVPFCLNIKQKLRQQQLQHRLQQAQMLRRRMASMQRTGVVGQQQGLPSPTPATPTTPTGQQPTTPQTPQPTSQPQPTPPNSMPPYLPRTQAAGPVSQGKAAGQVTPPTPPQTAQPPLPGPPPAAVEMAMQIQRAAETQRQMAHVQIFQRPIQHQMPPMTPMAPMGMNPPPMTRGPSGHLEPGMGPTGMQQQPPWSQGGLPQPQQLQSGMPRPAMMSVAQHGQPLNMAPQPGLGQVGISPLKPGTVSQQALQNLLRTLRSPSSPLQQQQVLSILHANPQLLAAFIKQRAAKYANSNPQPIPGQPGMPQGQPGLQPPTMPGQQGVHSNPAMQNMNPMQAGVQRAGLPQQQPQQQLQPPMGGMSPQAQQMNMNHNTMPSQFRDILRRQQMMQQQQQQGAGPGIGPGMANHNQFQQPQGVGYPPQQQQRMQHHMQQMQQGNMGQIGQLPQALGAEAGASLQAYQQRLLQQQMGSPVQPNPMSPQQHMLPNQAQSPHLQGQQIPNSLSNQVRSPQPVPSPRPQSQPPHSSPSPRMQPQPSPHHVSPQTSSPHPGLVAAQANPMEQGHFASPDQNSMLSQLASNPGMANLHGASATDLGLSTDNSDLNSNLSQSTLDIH
Chain of CBP HAT (Q92793 1323-1700 limits assumed): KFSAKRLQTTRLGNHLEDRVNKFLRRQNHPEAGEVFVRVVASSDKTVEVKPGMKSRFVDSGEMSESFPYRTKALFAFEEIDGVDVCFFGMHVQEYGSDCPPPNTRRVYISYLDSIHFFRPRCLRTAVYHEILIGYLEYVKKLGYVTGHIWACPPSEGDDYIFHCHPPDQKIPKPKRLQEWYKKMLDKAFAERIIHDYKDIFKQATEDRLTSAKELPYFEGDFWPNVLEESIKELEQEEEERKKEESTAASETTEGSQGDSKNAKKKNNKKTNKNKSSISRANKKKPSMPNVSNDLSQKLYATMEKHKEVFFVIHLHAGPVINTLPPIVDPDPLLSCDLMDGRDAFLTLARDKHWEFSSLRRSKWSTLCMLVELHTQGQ

SMILES: Cc1[nH]c2ccccc2c1-c1ncc(C(F)(F)F)cc1Cl [CPI-090]
- IC50 (CBP HAT): 0.74 µM
- Mechanism of inhibition (excess substrate MOI tests) (WT P300 HAT domain): AcCoA- and peptide-modulating compounds but not wholly competitive
- IC50 (WT P300 HAT domain): 0.318 µM and 0.31 µM
- EC50 [1]: > 30 µM
- DSF stabilization (P300-HAT domain): strong stabilization
- ΔTm at 250 µM (P300-HAT domain): 5.8 °C
- Inhibition of FL enzyme [2]: does not inhibit the FL enzyme
- IC50 [2, 3]: > 160 µM

SMILES: CC(=O)Nc1cccs1 [CPI-076]
- IC50 (CBP HAT): 39 µM
- Mechanism of inhibition (excess substrate MOI tests) (WT P300 HAT domain): AcCoA- and peptide-modulating compounds but not wholly competitive
- IC50 (WT P300 HAT domain): 20 µM
- ΔTm at 250 µM (P300-HAT domain): 1.3 °C
- Inhibition of FL enzyme [2]: no measurable FL activity
- FL p300 SPA IC50 [2, 3]: Undetectable
